Measurements as given in patent publication US4325946A, “Anthracycline glycosides, their preparation, use and compositions thereof” (Farmitalia Carlo Erba S.p.A., priority 1979, dated 1982).
Where a name gives a salt, the structure may show the parent alone.

Assays:
P-388 ascitic leukemia = assay: Activity on ascitic P-388 leukemia in mice; format: in vivo; conditions: for Toxic Deaths: macroscopic autoptic findings
Description: (§1) The new compounds according to the invention were tested in HeLa cells in vitro (time of exposure to the drugs: 24 hours) and on P-388 ascitic leukemia in mice in comparison with daunorubicin (daunomycin) and doxorubicin (adriamycin).
Activity on Ascitic P-388 Leukemia in Mice
^(a) Mice were treated i.p. on day 1 after tumor cell inoculation.
^(b) Median survival time of treated mice/median survival time of
^(c) Evaluated on the basis of macroscopic autoptic findings.
^(d) Longtime survival.

HeLa cells = assay: Effect on HeLa cells cloning efficiency in vitro; format: cell-based; conditions: HeLa cells exposed 24 hours, then plated, colonies evaluated 5 days later; for IC50: Homo sapiens, read-out: ID50 (the source's name)
Description: as §1
Effect on HeLa Cells Cloning Efficiency In Vitro^(a)
^(a) HeLa cells were exposed to the test compounds for 24 hours, then
plated. The number of colonies was evaluated 5 days later.

For `COc1cccc2c1C(=O)c1c(O)c3c(c(O)c1C2=O)CC(O)(C(=O)CO)CC3OC1CC(N)C(C)(O)C(C)O1.Cl` (stereo not shown) [I-B, 4'-C-methyl-doxorubicin], the “T/C (median survival time of treated mice/control mice × 100)” value (P-388 ascitic leukemia; 6 mg/Kg i.p. on day 1) was 186%, the “Toxic Deaths” value (P-388 ascitic leukemia; 6 mg/Kg i.p. on day 1) was 0/10 and the “T/C (median survival time of treated mice/control mice × 100)” value (P-388 ascitic leukemia; 7.7 mg/Kg i.p. on day 1) was 172%. For the same compound, the “Toxic Deaths” value (P-388 ascitic leukemia; 7.7 mg/Kg i.p. on day 1) was 0/10, the “LTS (longtime survival)” value (P-388 ascitic leukemia; 10 mg/Kg i.p. on day 1) was 3/20 and the “T/C (median survival time of treated mice/control mice × 100)” value (P-388 ascitic leukemia; 10 mg/Kg i.p. on day 1) was 233%. The “Toxic Deaths” value (P-388 ascitic leukemia; 10 mg/Kg i.p. on day 1) was 2/20 and the ID50 (HeLa cells) was 18 ng/mL.

For `COc1cccc2c1C(=O)c1c(O)c3c(c(O)c1C2=O)C[C@@](O)(C(C)=O)C[C@@H]3O[C@H]1C[C@H](N)[C@H](O)[C@H](C)O1` [Daunorubicin . HCl, Daunorubicin, reference compound], the “T/C (median survival time of treated mice/control mice × 100)” value (P-388 ascitic leukemia; 2.9 mg/Kg i.p. on day 1) was 175%, the “Toxic Deaths” value (P-388 ascitic leukemia; 2.9 mg/Kg i.p. on day 1) was 0/40 and the “T/C (median survival time of treated mice/control mice × 100)” value (P-388 ascitic leukemia; 4.4 mg/Kg i.p. on day 1) was 180%. The “Toxic Deaths” value (P-388 ascitic leukemia; 4.4 mg/Kg i.p. on day 1) was 3/39 and the IC50 (HeLa cells) was 9 ng/mL.

With `COc1cccc2c1C(=O)c1c(O)c3c(c(O)c1C2=O)C[C@@](O)(C(=O)CO)C[C@@H]3O[C@H]1C[C@H](N)[C@H](O)[C@H](C)O1` [Doxorubicin . HCl, Doxorubicin, reference compound] the “LTS (longtime survival)” value (P-388 ascitic leukemia; 6.6 mg/Kg i.p. on day 1) was 2/30, the “T/C (median survival time of treated mice/control mice × 100)” value (P-388 ascitic leukemia; 6.6 mg/Kg i.p. on day 1) was 193% and the “Toxic Deaths” value (P-388 ascitic leukemia; 6.6 mg/Kg i.p. on day 1) was 0/30. For the same compound, the “LTS (longtime survival)” value (P-388 ascitic leukemia; 10 mg/Kg i.p. on day 1) was 5/28, the “T/C (median survival time of treated mice/control mice × 100)” value (P-388 ascitic leukemia; 10 mg/Kg i.p. on day 1) was 227% and the “Toxic Deaths” value (P-388 ascitic leukemia; 10 mg/Kg i.p. on day 1) was 1/28. For the same compound, the IC50 (HeLa cells) was 8.4 ng/mL.

With 4'-C-methyl-daunorubicin [I-A] the “T/C (median survival time of treated mice/control mice × 100)” value (P-388 ascitic leukemia; 10 mg/Kg i.p. on day 1) was 150%, the “Toxic Deaths” value (P-388 ascitic leukemia; 10 mg/Kg i.p. on day 1) was 0/10 and the “T/C (median survival time of treated mice/control mice × 100)” value (P-388 ascitic leukemia; 20 mg/Kg i.p. on day 1) was 155%. The “Toxic Deaths” value (P-388 ascitic leukemia; 20 mg/Kg i.p. on day 1) was 0/10 and the ID50 (HeLa cells) was 35 ng/mL.

4'-epi-4'-C-methyl-daunorubicin [I-C] was tested, and the “T/C (median survival time of treated mice/control mice × 100)” value (P-388 ascitic leukemia; 0.29 mg/Kg i.p. on day 1) was 140%, the “Toxic Deaths” value (P-388 ascitic leukemia; 0.29 mg/Kg i.p. on day 1) was 0/10 and the “T/C (median survival time of treated mice/control mice × 100)” value (P-388 ascitic leukemia; 0.44 mg/Kg i.p. on day 1) was 163%. For the same compound, the “Toxic Deaths” value (P-388 ascitic leukemia; 0.44 mg/Kg i.p. on day 1) was 0/10, the “T/C (median survival time of treated mice/control mice × 100)” value (P-388 ascitic leukemia; 0.66 mg/Kg i.p. on day 1) was 158% and the “Toxic Deaths” value (P-388 ascitic leukemia; 0.66 mg/Kg i.p. on day 1) was 1/20. For the same compound, the ID50 (HeLa cells) was 2.8 ng/mL.

In the case of 4'-epi-4'-C-methyl-doxorubicin [I-D], the “T/C (median survival time of treated mice/control mice × 100)” value (P-388 ascitic leukemia; 1 mg/Kg i.p. on day 1) was 150%, the “Toxic Deaths” value (P-388 ascitic leukemia; 1 mg/Kg i.p. on day 1) was 0/10 and the “T/C (median survival time of treated mice/control mice × 100)” value (P-388 ascitic leukemia; 2 mg/Kg i.p. on day 1) was 156%. For the same compound, the “Toxic Deaths” value (P-388 ascitic leukemia; 2 mg/Kg i.p. on day 1) was 0/10 and the ID50 (HeLa cells) was 0.62 ng/mL.
